Literature values, collected in patent US20050069593A1, “Nutritional supplement containing 7-Keto-DHEA and conjugated linoleic acid” (LIFE TIME FITNESS, Inc., priority 2003, published 2005).

Test system: brown adipose tissue
Details: in vitro; Dulloo, et al., Int. J. Obes. Relat. Metab. Disord. 24, 252 (2000)

O=C(O[C@@H]1Cc2c(O)cc(O)cc2O[C@@H]1c1cc(O)c(O)c(O)c1)c1cc(O)c(O)c(O)c1 [EGCG, epigallocatechin gallate]
respiration rate of brown adipose tissue: increased
